# According to the supplement of paper PMC13380429:
# Where a name gives a salt, the structure may show the parent alone.
# Experiments:
# Conditions in all cases: 72 h
# HepG2 [1] = assay: drug sensitivity score (DSS) for viability; higher = more toxic; extreme values may be limits of the assay
# Caco-2 [2] = assay: as above
# Vero E6 [3] = assay: as above
# Calu-3 [4] = assay: as above
# U2OS [5] = assay: as above
# HepG2 [6] = assay: relative viability EC50 (midpoint between 100% and the lowest measured viability); higher = less toxic
# Caco-2 [7] = assay: as above
# Vero E6 [8] = assay: as above
# Calu-3 [9] = assay: as above
# U2OS [10] = assay: as above
# HepG2 [11] = assay: cell viability relative to DMSO; higher = less toxic
# Caco-2 [12] = assay: as above
# Vero E6 [13] = assay: as above
# Calu-3 [14] = assay: as above
# U2OS [15] = assay: as above
Compound,drug sensitivity score (HepG2 [1]),drug sensitivity score (Caco-2 [2]),drug sensitivity score (Vero E6 [3]),drug sensitivity score (Calu-3 [4]),drug sensitivity score (U2OS [5]),relative viability EC50 (HepG2 [6]),relative viability EC50 (Caco-2 [7]),relative viability EC50 (Vero E6 [8]),relative viability EC50 (Calu-3 [9]),relative viability EC50 (U2OS [10]),cell viability (HepG2 [11]; 1 nM),cell viability (HepG2 [11]; 10 nM),cell viability (HepG2 [11]; 100 nM),cell viability (HepG2 [11]; 1000 nM),cell viability (HepG2 [11]; 10000 nM),cell viability (Caco-2 [12]; 1 nM),cell viability (Caco-2 [12]; 10 nM),cell viability (Caco-2 [12]; 100 nM),cell viability (Caco-2 [12]; 1000 nM),cell viability (Caco-2 [12]; 10000 nM),cell viability (Vero E6 [13]; 1 nM),cell viability (Vero E6 [13]; 10 nM),cell viability (Vero E6 [13]; 100 nM),cell viability (Vero E6 [13]; 1000 nM),cell viability (Vero E6 [13]; 10000 nM),cell viability (Calu-3 [14]; 1 nM),cell viability (Calu-3 [14]; 10 nM),cell viability (Calu-3 [14]; 100 nM),cell viability (Calu-3 [14]; 1000 nM),cell viability (Calu-3 [14]; 10000 nM),cell viability (U2OS [15]; 1 nM),cell viability (U2OS [15]; 10 nM),cell viability (U2OS [15]; 100 nM),cell viability (U2OS [15]; 1000 nM),cell viability (U2OS [15]; 10000 nM)
O=C(NCCO)c1cccc(-c2cc(Nc3ccc(OC(F)(F)F)cc3)ncn2)c1 [GNF-5],0,0.4,0,0,0,> 10 µM,> 10 µM,> 10 µM,> 10 µM,> 10 µM,99.5%,95.2%,98.2%,98.1%,89.4%,94.1%,92.7%,95.3%,107%,78.5%,91.5%,97.4%,94.6%,105%,102%,102%,99.4%,89.8%,107%,94%,95.7%,101%,98.5%,106%,98.5%
Cc1ccc(Nc2ncc3c(n2)N(C)C(=O)N(c2cc(NC(=O)c4cccc(C(F)(F)F)c4)ccc2C)C3)cn1 [GNF-7],15.4,16.6,17.5,16.6,19,0.501 µM,0.21 µM,0.235 µM,0.195 µM,0.156 µM,92.5%,101%,97.7%,16.8%,0.3%,93.8%,92.1%,89.3%,19.3%,18.7%,95.2%,103%,91%,12%,11.3%,112%,103%,87.5%,20.8%,23.7%,105%,97.5%,78.8%,13.9%,32.9%
O=C(O)CCNc1cc(N2CCc3ccccc3CC2)nc(-c2ccccn2)n1 [GSK-J1],0,0,0,0,0,> 10 µM,> 10 µM,> 10 µM,> 10 µM,> 10 µM,109%,89.9%,113%,101%,91.3%,91.6%,92.4%,100%,99.7%,104%,102%,94.8%,96.2%,95.2%,102%,97.5%,93.3%,97.9%,104%,111%,90.4%,100%,91.9%,98.6%,102%
CCOC(=O)c1c(/C(C#N)=C\N)c2ccc(Cl)c(Cl)c2n1C [KH-CB19],0,0,0,0,0,> 10 µM,> 10 µM,> 10 µM,> 10 µM,> 10 µM,99.8%,105%,98.7%,102%,93.2%,101%,93.6%,103%,99.2%,92.4%,96.2%,104%,98.4%,103%,92%,98.2%,97.7%,96.6%,101%,101%,102%,99.6%,103%,96.5%,107%
O=C(Cc1ccc(-c2ccc(OCCN3CCOCC3)cc2)cn1)NCc1ccccc1 [KX2-391],14.9,11.2,15.8,10.4,14.3,0.143 µM,0.284 µM,0.196 µM,0.222 µM,0.339 µM,107%,113%,80.8%,34.5%,38.5%,102%,92.3%,91.7%,45.3%,39.2%,91.7%,93.2%,88.3%,24.5%,27.2%,96.8%,90.8%,82.8%,54.5%,42%,97.5%,94.8%,96.4%,24.5%,19.5%
c1ccc(Oc2nc(NC3CCCCC3)c3[nH]cnc3n2)cc1 [MRS-3777],0,0,1.1,0,0,> 10 µM,> 10 µM,> 10 µM,> 10 µM,> 10 µM,110%,97.5%,88.7%,99.2%,99.4%,87%,104%,99.6%,109%,100%,98.7%,96.2%,93.5%,97.2%,78.2%,92.7%,95.7%,102%,104%,101%,97.5%,98.8%,97.5%,108%,103%
c1ccc2sc(SNC3CCCCC3)nc2c1 [N-cyclohexyl-2-benzothiazolesulfenamide],0,0,0,1.6,0,> 10 µM,> 10 µM,> 10 µM,> 10 µM,> 10 µM,97.5%,105%,84.2%,97.4%,100%,92.5%,102%,116%,101%,105%,110%,106%,100%,107%,87.1%,105%,99.6%,101%,84%,94.7%,95.1%,95%,100%,96.6%,100%
C=CCN1CC[C@]23c4c5ccc(O)c4O[C@H]2C(=O)CC[C@@]3(O)[C@H]1C5 [NALOXONE HYDROCHLORIDE],0,0,0,0,0,> 10 µM,> 10 µM,> 10 µM,> 10 µM,> 10 µM,106%,97.9%,102%,95.9%,103%,98%,94.7%,101%,100%,104%,99%,103%,104%,95.9%,100%,94.5%,94.4%,88.5%,91%,99.6%,103%,99.7%,102%,103%,100%
O=C(O)C1=CCCN(CCON=C(c2ccccc2)c2ccccc2)C1 [NNC-711],0,0,0,0,0,> 10 µM,> 10 µM,> 10 µM,> 10 µM,> 10 µM,93.4%,100%,99.1%,109%,101%,102%,95.6%,104%,96%,101%,90.4%,103%,101%,97.4%,114%,108%,100%,102%,101%,98.9%,98.7%,95.5%,103%,101%,98.5%
COc1cccc(-c2cc(F)ccc2[C@H]2Cc3nc(N)nc(C)c3C(=O)N2)n1 [NVP-HSP990],30,22.6,19.6,19.3,27.7,0.0343 µM,0.0094 µM,0.0697 µM,0.0427 µM,0.0446 µM,105%,104%,0.7%,0.2%,0.5%,110%,67.8%,51.1%,42.2%,41%,101%,112%,47.3%,27.8%,26.6%,108%,97.1%,43.5%,34.4%,36.2%,102%,94.9%,19.3%,2.5%,3.2%
COc1cc(Nc2ncc(F)c(Nc3ccc4c(n3)NC(=O)C(C)(C)O4)n2)cc(OC)c1OC [R406],0.2,1.7,0.9,0.2,0,> 10 µM,> 10 µM,> 10 µM,> 10 µM,> 10 µM,98.1%,103%,102%,92.1%,88.8%,96.7%,102%,86.9%,92.1%,75.5%,100%,99%,93.8%,91%,81.9%,85.3%,89.8%,97.6%,101%,85.6%,95.8%,100%,94.3%,97.8%,88.9%
CC(C)=CC[C@@H](O)C1=CC(=O)c2c(O)ccc(O)c2C1=O [Shikonin],18,14.1,18.3,13,18.9,0.313 µM,0.587 µM,0.29 µM,0.711 µM,0.26 µM,102%,97.5%,97.4%,2.2%,-0.3%,99.6%,103%,94.3%,30.6%,1.1%,95.8%,96.3%,91.2%,6.1%,-0.3%,98.7%,112%,96.5%,36.5%,2%,96.9%,100%,89.5%,4.8%,0.2%
Cc1cc(C(=O)N2Cc3cnn(C)c3Nc3ccccc32)ccc1CNC(=O)N1CCC[C@H]1C(=S)N1CCCN(C)CC1 [TC-OT-39],0,0,0,0,0,> 10 µM,> 10 µM,> 10 µM,> 10 µM,> 10 µM,100%,90.3%,97%,104%,96.8%,99.8%,92.2%,98.7%,106%,100%,95.3%,98.6%,94.4%,97.5%,102%,98.1%,84.4%,105%,97.9%,90%,97.7%,100%,106%,98%,101%
O=C(O)CC1CC(c2ccccc2)=NO1 (stereo not given) [VGX-1027],0,0,0,0,0,> 10 µM,> 10 µM,> 10 µM,> 10 µM,> 10 µM,98.1%,93.8%,101%,104%,115%,98.2%,106%,99.6%,96.1%,104%,94.1%,94.7%,97.6%,95%,102%,91.7%,101%,91.8%,93.7%,103%,101%,94.8%,97.1%,103%,103%
